Series [1] deals with MK-801-treated mice. The experiment in a line: Novel object recognition (NOR) test, MK-801-induced deficits. Format: in vivo. As to the method:
(§1) Drugs were administered on two different schedules: (1) acute administration of compounds 45 min (WAY100635—5-HT1A antagonist) or 30 min (VU0357017, VU152100, VU0238429, and F15599) before MK-801 (also administered once 30 min before the test in Y-maze or T1 in NOR test); and (2) prolonged administration (once per day for 7 consecutive days) of the compounds and MK-801 with the last administration 24 h before the test (NOR test) or at the day of the test (Y-maze). […] Schedules of administration are presented graphically in Figure 2. The subeffective doses of the compounds for acute administration in the NOR test were chosen based on our previous research (see: [22, 23]) while dose-dependent studies of the activity of the compounds in reversing disruptions in the Y-maze or after prolonged administration along with MK-801 were performed within this study. Different vehicles were used throughout the study: (1) 0.9% NaCl and (2) 10% Tween 80. Vehicles were administered to all animals (e.g., control mice and MK-801-treated mice) on the same schedule as drugs were administered to the appropriate drug-treated groups of mice. Neither solvent exerted effects on animal behavior.
(§2) Male Albino Swiss mice (Charles River, Sulzfeld, Germany) weighing 20–25 g at the beginning of the experiments were used in the studies. The animals were housed in a room with a 12:12 h light-dark cycle at a temperature of 22 ± 1 °C with food and water available ad libitum. The experimental groups consisted of 8–10 animals. All drugs were administered intraperitoneally (i.p.) at a volume of 10 mL/kg. The behavioral experiments were performed by an observer who was blinded to the treatment. The procedures were conducted in accordance with the European Communities Council Directive of 22 September 2010 (2010/63/EU) and Polish legislation acts concerning animal experimentation and were approved by the II Local Ethics Committee by the Maj Institute of Pharmacology, Polish Academy of Sciences in Krakow (15/2020, 240/2020).
(§3) In acute experiments, the tested compounds (alone or in combination) were administered 30 min before MK-801 (0.3 mg/kg), which was administered 30 min before the test or training trial (T1) in the NOR test. In chronic experiments, the tested compounds (alone or in combination) and MK-801 were administered for seven days. Behavioral tests were performed on the eighth day.
The NOR test was performed as described previously. Briefly, the habituation, training and test trial were carried out in a dark room in a black, plastic rectangular arena illuminated with a 355 lux bulb. During the habituation trial, the animals were allowed to explore the arena in the absence of objects (10 min/day for 2 days). The next day, the training (T1) and test (T2) trials were performed. Throughout T1, mice were allowed to freely explore two identical objects (5 min), one of which was subsequently replaced by a novel object in T2 (1 h later, 5 min of exploration). Time spent exploring (i.e., sniffing or touching) the familiar (Tfamiliar) or novel object (Tnovel) was measured by a trained observer, and then the recognition index was calculated for each mouse [(Tnovel − Tfamiliar)/(Tfamiliar + Tnovel)] × 100.

The subject of series [2] is MK-801-treated mice. The series can be described thus: Y-maze test (spontaneous alternations), MK-801-induced deficits. In kind it is in vivo. As to the method:
as §1, §2, §3
The Y-maze was performed using the methods described by Miedel et al. and Kraeuter et al. with minor modifications. A black, wooden Y-shaped apparatus with equal length arms (labeled A, B, or C) spaced 120 apart was used in the behavioral experiment. Visual clues were placed inside the maze and mounted to the back wall of each arm. The experiment was performed in a well-lit room. The mice were placed in the same starting arm and were allowed to freely explore the maze for 8 min. After each trial, the maze was wiped clean. The sequence and the number of arm entries were recorded to calculate the percentage of spontaneous alternations using the following formula: [(Number of alternations)/(Total arm entries − 2)] × 100. An arm entry was scored if the animal entered the arm with all paws. Consecutive entries into three distinct arms were scored as an alternation (e.g., ACB, but not ACA) in which sequences could overlap (e.g., ACBACABAC represents […] alternations).

Series [3] can be described thus: Pharmacokinetic analysis of drug-drug interactions (plasma, FC concentration, FC penetration). In kind it is in vivo, mice. The conditions noted are these: Albino Swiss, mouse, in vivo, 30 min. How it is done: The experiment was performed using the methods described by Bridges et al. and in our previous studies.
The pharmacokinetic analysis was performed in the blood and prefrontal cortex. […] Plasma and FC samples were stored at −80 °C until analysis.
The investigated compounds were administered alone at the top dose (F15599—0.1 mg/kg, VU0357017—5 mg/kg, VU0152100—1 mg/kg, and VU0238429—5 mg/kg) and in combinations of muscarinic ligands at subeffective doses with F15599 at subeffective dose (F15599 + VU0357017 0.05 and 0.15 mg/kg, F15599 + VU0152100 0.05 and 0.05 mg/kg, F15599 + VU0238429 0.05 and 1 mg/kg). The FC and blood were collected on the eighth day, 30 min after administration. All mice were parallelly treated with MK-801 (0.3 mg/kg) for seven consecutive days.
On the day of analysis, frozen whole mouse brain tissues were weighed and homogenized in 1:2 (w/v) volumes of ice-cold acetonitrile containing 0.1% FA and the internal standard mix. Samples were homogenized using a Metal Bead Lysing Matrix, vortexed for 1 min, shaken for 20 min at 4 °C on Thermomixer C, and centrifuged at 14,000× g rpm for 20 min at 4 °C. Finally, 50 µL of supernatant were diluted with 0.1% FA in water (1:1, v/v) and analyzed using HPLC/MS/MS.
The sample extraction of plasma (20 μL) was performed after spiking with the internal standard mix using the protein precipitation method and three volumes of ice-cold acetonitrile containing 0.1% formic acid. The extract was vortexed, incubated on ice for 20 min and centrifuged at 14,000× g rpm for 20 min at 4 °C. The supernatant was diluted with 0.1% FA in water (1:1, v/v) and analyzed by means of HPLC/MS/MS using a QTRAP 4500 (AB Sciex) mass spectrometer in positive ion mode in Multiple Reaction Monitoring (MRM screening) coupled with UHPLC (NEXERA XR, Shimadzu). Chromatographic separation was achieved on a Synergi 4 µm Fusion-RP 80 A 50 × 2 mm (Phenomenex) column at a flow rate of 0.2 mL/min. The gradient program was as follows: 20% B (0.3 min), 20–100% B (1.7 min), 100% B (3 min), 100–20% B (0.1 min), 20% B (2 min), solvent A (95:5:0.1% formic acid in water:methanol) and solvent B (methanol containing 0.1% formic acid). The column temperature was set to 40 °C. Analyst software was used to control the instrument and collect data. The ion transfer tube temperature was 300 °C. The spray voltage, collision energy, declastering potential, and gas parameters were optimized to achieve the maximal response using the test compounds. Selected reaction monitoring was carried out using the transition parameters. Calibration curves were constructed, and a linear response was obtained in the range of 0.25–500 ng/mL (VU357017, VU0152100, and F15599) and 1.25–2500 ng/mL (VU0238429) by spiking known amounts of each compound in blank brain homogenates and plasma. For VU0357017 and F15599 IS VU0152100 was used as internal standard. Sample concentration of internal standard was 100 ng/mL for IS VU0238429 and 50 ng/mL for IS VU0152100.
Brain penetration was calculated as FC/plasma ratio × 100%.

For `C[C@]12N[C@H](Cc3ccccc31)c1ccccc12` [MK-801], the figures for the “Disruption in the recognition index (NOR)” value with MK-801-treated mice [1] (acute MK-801 (0.3 mg/kg) 30 min before T1) and with MK-801-treated mice [1] (seven days of MK-801 administration) were “induced typical disruption” and “induced a typical disruption”, respectively. Moreover, the “Disruption of spontaneous alternations in the Y-maze” value with MK-801-treated mice [2] (acute MK-801 (0.3 mg/kg) 30 min before test) is on record as “induced typical disruption”. Further, in the series with MK-801-treated mice [2] (prolonged MK-801, test performed 24 h after the last administration), the “Disruptive effect on animals' behavior in Y-maze” value is reported as “lack of MK-801 disruptive effect”.

Regarding `COc1ccc(CNC(=O)c2sc3nc(C)cc(C)c3c2N)cc1` [VU0152100], the “Reversal of MK-801-induced deficits in the NOR test (recognition index)” value was “activity of VU0152100 was observed” in the series with MK-801-treated mice [1] (7 days with MK-801, 0.1 mg/kg i.p.); “activity of VU0152100 was observed” with MK-801-treated mice [1] (7 days with MK-801, 1 mg/kg); “ineffective” with MK-801-treated mice [1] (7 days with MK-801, dose of 0.05). The “Reversal of MK-801-induced disruptions in NOR test by combined administration” value in the series with MK-801-treated mice [1] (7 days, F15599 0.05 mg/kg with VU0152100 0.05 mg/kg (subeffective doses)) is given as “reversed”. Also, the “Effect of top dose on MK-801-induced deficits in the NOR test” value with MK-801-treated mice [1] (acute, 1 mg/kg i.p., alone) was “pro-cognitive effect”. The “Effect of combined administration on MK-801-induced memory deficits in the NOR test” value in the series on MK-801-treated mice [1] (acute, subeffective doses, F15599 with VU0152100) is given as “no effect”. Also, in series [3], the “Increase of FC penetration after prolonged administration compared to acute” value is “ca. 50%”. In series [3], the “Increase of FC penetration when administered concomitantly with F15599” value was “more than 50%”. Further, the “Reversal of MK-801-induced disruptions in Y-maze by combined administration” value in the series with MK-801-treated mice [2] (7 days, F15599 0.025 mg/kg with VU0152100 0.05 mg/kg (subeffective doses)) is “did not reverse”. The “Reversal of MK-801-induced reduction in spontaneous alternations in the Y-maze” value with MK-801-treated mice [2] (acute, 0.1-5 mg/kg i.p.) is reported as “No efficacy”. Moreover, the “Effect of combined administration on spontaneous alternations in the Y-maze test” value in the series with MK-801-treated mice [2] (acute, F15599 0.1 mg/kg with VU0152100 1 mg/kg, MK-801-treated) is given as “no effect”.

Turning to `COc1ccccc1N1CCN(CCN(C(=O)C2CCCCC2)c2ccccn2)CC1` [WAY100635], the “Effect of WAY100635 on the pro-cognitive effect of muscarinic ligand in the NOR test” value in the series on MK-801-treated mice [1] (acute, WAY100635 0.1 mg/kg 15 min before VU0152100 (1 mg/kg)) is recorded as “reversed the pro-cognitive effect”; with MK-801-treated mice [1] (acute, WAY100635 0.1 mg/kg 15 min before VU0238429 (5 mg/kg)), “reversed the pro-cognitive effect”; with MK-801-treated mice [1] (acute, WAY100635 0.1 mg/kg 15 min before VU0357017 (5 mg/kg)), “reversed the pro-cognitive effect”.

The record behind these values is PMC8395335, “Serotonergic–Muscarinic Interaction within the Prefrontal Cortex as a Novel Target to Reverse Schizophrenia-Related Cognitive Symptoms” (International Journal of Molecular Sciences, 2021).
